SMILES | melting point
CC(=O)c1cccc(B(O)O)c1 [3-acetylbenzeneboronic acid] | 203 °C
CC(=O)C(C)C [3-methyl-2-butanone] | -92 °C
COc1ccc(CCN2CCC(Nc3nc4ccccc4n3Cc3ccc(F)cc3)CC2)cc1 [astemizole] | 149 °C
O=S(=O)(O)CCCNC(CO)(CO)CO | 230 °C
CCCCCCCC(C)=O [2-nonanone] | -15 °C
CC(=O)OC1CCC2(C)C(CC(=O)C3C4CCC(=O)C4(C)CCC32)C1 (stereo not drawn) [7,17-dioxoandrostan-3-yl acetate] | 165 °C
C[C@]12C/C(=C/O)C(=O)C[C@@H]1CC[C@@H]1[C@@H]2CC[C@@]2(C)[C@H]1CC[C@]2(C)O | 179 °C
CCC1(c2ccccc2)C(O)=NC(=O)N=C1O [phenobarbital] | 176 °C
ClC(Cl)(Cl)c1ccccc1 [(Trichloromethyl)benzene] | -5 °C
O=Cc1ccc2c(c1)OCO2 [piperonal] | 37 °C
C=CCCCCCCCCCCCCCCCC [1-octadecene] | 18 °C
Cc1cc(C)cc(C)c1 [mesitylene] | -45 °C
[C-]#[N+]C1CCCCC1 [Cyclohexyl isocyanide] | 6 °C
Brc1cc(Br)cc(Br)c1 [1,3,5-Tribromobenzene] | 122 °C
CI [iodomethane] | -66 °C
Nc1ccccc1C(=O)O [o-aminobenzoic_acid] | 146 °C
CCC(C)N (stereo not drawn) [2-aminobutane] | -104 °C
COC1(OC)CCC2(C)C3CCC4(C)CCCC4(O)C3CCC2(C)C1 (stereo not drawn) [3,3-dimethoxy-5-methylandrostan-14-ol] | 147 °C
Cc1cccc[n+]1[O-] [2-picoline n-oxide] | 48 °C
CCCCCCCCCCCCCO [1-tridecanol] | 34 °C
Cc1ccc2oc(-c3cccc(O)c3)cc(=O)c2c1 [3'-hydroxy-6-methylflavone] | 205 °C
O=Cc1ccc(-c2ccccc2)cc1 [p-phenylbenzaldehyde] | 60 °C

More lines, now with the values ahead:

melting point | SMILES
238 °C | Cn1c(=O)c2c(ncn2C)n(C)c1=O [Caffeine]
232 °C | O=C(O)CCCC[C@@H]1SC[C@@H]2NC(=O)N[C@@H]21 [Biotin]
-113 °C | C=COCCCC [N-butyl vinyl ether]
79 °C | CC1(C)OC(=O)NC1=O [5,5-dimethyloxazolidine-2,4-dione]
97 °C | O=C(O)CCCC(=O)O [glutaric acid]
152 °C | O=C(CCCN1CCC(O)(c2ccc(Cl)cc2)CC1)c1ccc(F)cc1 [haloperidol]
-106 °C | CC(C)SC(C)C [Diisopropyl sulfide]
143 °C | O=C(O)CCCCCCC(=O)O [suberic acid]
57 °C | NCCCCCCO [6-amino-1-hexanol]
184 °C | COc1ccc(C(=O)O)cc1 [4-Methoxybenzoic acid]
55 °C | CN(C)c1ccc(Br)cc1 [4-bromo-n,n-dimethylaniline]
136 °C | O=C(C1CCCCC1)N1CC(=O)N2CCc3ccccc3C2C1 (stereo not drawn) [praziquantel]
160 °C | CC1C=CC=CCCC=CC=CC=CC=CC(OC2O[C@H](C)[C@@H](O)[C@H](N)[C@@H]2O)CC(O)C(C(=O)O)C(O)CC(=O)CC(O)C(O)CCC(O)CC(O)CC(O)CC(=O)OC(C)C(C)C1O (stereo partly drawn) [Nystatin]
257 °C | Nc1nc(=O)c2ncn(COCCO)c2[nH]1 [Aciclovir]
119 °C | CC(C)c1ccc(C(=O)O)cc1 [4-isopropylbenzoic acid]
178 °C | CC/C(=C(/CC)c1ccc(O)cc1)c1ccc(O)cc1 [diethylstilbestrol]
18 °C | CCCCCCCCCCCCCCCC [Hexadecane]
-73 °C | CCOC(=O)CC [ethyl propionate]
106 °C | N#Cc1ccc2[nH]ccc2c1 [indole-5-carbonitrile]
-51 °C | CC(=O)OCc1ccccc1 [benzyl_acetate]
68 °C | COc1ccccc1N1CCN(CCCC(=O)c2ccc(F)cc2)CC1 [fluanisone]
